Source: publication PMC2819846 (Mutation research, 2008)
Where two headings read alike, the source gives them in different places.

How the values were obtained:
Salmonella TA100 = assay: Salmonella plate-incorporation mutagenicity assay, strain TA100; format: cell-based; settings: for Mutagenic potency, Revertants/µg ± S.E., TA100 / Mutagenicity call TA100: plate-incorporation, +S9
strain TA100 = format: cell-based, Salmonella; settings: TA100 liquid-suspension; for Rev/10^6 survivors: DMSO 0.8; for Percent survival: DMSO 100
Salmonella TA104 = assay: Salmonella plate-incorporation mutagenicity assay, strain TA104, with S9 mix; format: cell-based; settings: for Mutagenic potency, Revertants/µg ± S.E., TA104 / Mutagenicity call TA104: plate-incorporation, +S9
[1] = test system: DNA from Salmonella TA100; assay: Stable DNA adducts by 32P-postlabeling in DNA of treated TA100; format: cell-based; settings: DMSO 0.024 ± 0.000
Salmonella TA98 = assay: Salmonella plate-incorporation mutagenicity assay, strain TA98, with S9 mix; format: cell-based; settings: for Mutagenic potency, Revertants/µg ± S.E., TA98 / Mutagenicity call TA98: plate-incorporation, +S9
[2] = test system: DNA from Salmonella TA100; assay: Abasic sites by aldehydic-site assay in DNA of treated TA100; format: cell-based; settings: DMSO 5.9 ± 0.33
[3] = TA100 +S9, Test 1, 2 µg/plate, zero-dose 99/110/110
[4] = TA100 +S9, Test 1, 5 µg/plate, zero-dose 99/110/110
[5] = TA100 +S9, Test 1, 10 µg/plate, zero-dose 99/110/110
[6] = TA100 +S9, Test 1, 20 µg/plate, zero-dose 99/110/110
[7] = TA100 +S9, Test 1, 40 µg/plate, zero-dose 99/110/110
[8] = TA100 +S9, Test 1, 80 µg/plate, zero-dose 99/110/110
[9] = TA100 +S9, Test 2, 0.5 µg/plate, zero-dose 84/78/80
[10] = TA100 +S9, Test 2, 1 µg/plate, zero-dose 84/78/80
[11] = TA100 +S9, Test 2, 2.5 µg/plate, zero-dose 84/78/80
[12] = TA100 +S9, Test 2, 5 µg/plate, zero-dose 84/78/80
[13] = TA100 +S9, Test 3, 0.5 µg/plate, zero-dose 127/118/125
[14] = TA100 +S9, Test 3, 1 µg/plate, zero-dose 127/118/125
[15] = TA100 +S9, Test 3, 2.5 µg/plate, zero-dose 127/118/125
[16] = TA100 +S9, Test 3, 5 µg/plate, zero-dose 127/118/125
[17] = TA104 +S9, Test 3, 0.5 µg/plate, zero-dose 402/395/336
[18] = TA104 +S9, Test 3, 1 µg/plate, zero-dose 402/395/336
[19] = TA104 +S9, Test 3, 2.5 µg/plate, zero-dose 402/395/336
[20] = TA104 +S9, Test 3, 5 µg/plate, zero-dose 402/395/336
[21] = TA98 +S9, Test 1, 2 µg/plate, zero-dose 33/40/39
[22] = TA98 +S9, Test 1, 5 µg/plate, zero-dose 33/40/39
[23] = TA98 +S9, Test 1, 10 µg/plate, zero-dose 33/40/39
[24] = TA98 +S9, Test 1, 20 µg/plate, zero-dose 33/40/39
[25] = TA98 +S9, Test 1, 40 µg/plate, zero-dose 33/40/39
[26] = TA98 +S9, Test 1, 80 µg/plate, zero-dose 33/40/39
[27] = TA98 +S9, Test 2, 10 µg/plate, zero-dose 43/41/30
[28] = TA98 +S9, Test 2, 20 µg/plate, zero-dose 43/41/30
[29] = TA98 +S9, Test 2, 40 µg/plate, zero-dose 43/41/30
[30] = TA98 +S9, Test 2, 80 µg/plate, zero-dose 43/41/30
[31] = TA98 +S9, Test 3, 10 µg/plate, zero-dose 49/50/50
[32] = TA98 +S9, Test 3, 20 µg/plate, zero-dose 49/50/50
[33] = TA98 +S9, Test 3, 40 µg/plate, zero-dose 49/50/50
[34] = TA98 +S9, Test 3, 80 µg/plate, zero-dose 49/50/50

Compound: O[C@@H]1C=Cc2c(ccc3ccc4sccc4c23)[C@H]1O (racemic) [P[3,4-b]T 8,9-diol, (±)-trans-8,9-Dihydrophenanthro[3,4-b]thiophene 8,9-diol]
- Rev/plate (Salmonella TA100; [3]): 326 rev/plate
- Rev/plate (Salmonella TA100; [4]): 554 rev/plate
- Rev/plate (Salmonella TA100; [5]): 755 rev/plate
- Rev/plate (Salmonella TA100; [6]): 995 rev/plate
- Rev/plate (Salmonella TA100; [7]): 992 rev/plate
- Rev/plate (Salmonella TA100; [8]): 847 rev/plate
- Rev/plate (Salmonella TA100; [9]): 80/94
- Rev/plate (Salmonella TA100; [10]): 140/116
- Rev/plate (Salmonella TA100; [11]): 268/224
- Rev/plate (Salmonella TA100; [12]): 352/315
- Rev/plate (Salmonella TA100; [13]): 147/151
- Rev/plate (Salmonella TA100; [14]): 178/187
- Rev/plate (Salmonella TA100; [15]): 347/430
- Rev/plate (Salmonella TA100; [16]): 545/614
- Mutagenic potency, Revertants/µg ± S.E., TA100 (Salmonella TA100): 80.0 ± 13.2 rev/µg
- Mutagenicity call TA100 (Salmonella TA100): (+) (Called mutagenic (+) based on showing reproducible, dose-related increases in rev/plate that reached or exceeded 2-fold relative to zero-dose controls)
- Fold increase in mutant frequency relative to DMSO-treated cells (strain TA100; 2 µg/ml): 2.5 fold
- Rev/10^6 survivors (strain TA100; 2 µg/ml): 2.0 Rev/10^6 survivors
- Percent survival (strain TA100; 2 µg/ml): 91%
- Fold increase in mutant frequency relative to DMSO-treated cells (strain TA100; 5 µg/ml): 2.8 fold
- Rev/10^6 survivors (strain TA100; 5 µg/ml): 2.2 Rev/10^6 survivors
- Percent survival (strain TA100; 5 µg/ml): 63%
- Rev/plate (Salmonella TA104; TA104 +S9, Test 2, 0.5 µg/plate, zero-dose 276/260/270): 486/465
- Rev/plate (Salmonella TA104; TA104 +S9, Test 2, 1 µg/plate, zero-dose 276/260/270): 213/673
- Rev/plate (Salmonella TA104; TA104 +S9, Test 2, 2.5 µg/plate, zero-dose 276/260/270): 1311/1300
- Rev/plate (Salmonella TA104; TA104 +S9, Test 2, 5 µg/plate, zero-dose 276/260/270): 1723/1755
- Rev/plate (Salmonella TA104; [17]): 566/525
- Rev/plate (Salmonella TA104; [18]): 754/785
- Rev/plate (Salmonella TA104; [19]): 1235/1287
- Rev/plate (Salmonella TA104; [20]): 1508/1620
- Mutagenic potency, Revertants/µg ± S.E., TA104 (Salmonella TA104): 369 ± 28 rev/µg
- Mutagenicity call TA104 (Salmonella TA104): (+) (Called mutagenic (+) based on showing reproducible, dose-related increases in rev/plate that reached or exceeded 2-fold relative to zero-dose controls)
- Stable adducts/10^8 nucleotides ± S.E ([1]; TA100, 2 µg/ml): 0.170 ± 0.045 adducts/10^8 nucleotides
- Stable adducts/10^8 nucleotides ± S.E ([1]; TA100, 5 µg/ml): 0.750 ± 0.045 adducts/10^8 nucleotides
- Rev/plate (Salmonella TA98; [21]): 61 rev/plate
- Rev/plate (Salmonella TA98; [22]): 87 rev/plate
- Rev/plate (Salmonella TA98; [23]): 94 rev/plate
- Rev/plate (Salmonella TA98; [24]): 156 rev/plate
- Rev/plate (Salmonella TA98; [25]): 285 rev/plate
- Rev/plate (Salmonella TA98; [26]): 412 rev/plate
- Rev/plate (Salmonella TA98; [27]): 104/110
- Rev/plate (Salmonella TA98; [28]): 124/134
- Rev/plate (Salmonella TA98; [29]): 276/244
- Rev/plate (Salmonella TA98; [30]): 381/323
- Rev/plate (Salmonella TA98; [31]): 143/142
- Rev/plate (Salmonella TA98; [32]): 193/190
- Rev/plate (Salmonella TA98; [33]): 315/359
- Rev/plate (Salmonella TA98; [34]): 448/459
- Mutagenic potency, Revertants/µg ± S.E., TA98 (Salmonella TA98): 5.6 ± 0.8 rev/µg
- Mutagenicity call TA98 (Salmonella TA98): (+) (Called mutagenic (+) based on showing reproducible, dose-related increases in rev/plate that reached or exceeded 2-fold relative to zero-dose controls)
- Abasic sites/10^5 nucleotides ± S.E ([2]; TA100, 2 µg/ml): 2.9 ± 0.23 sites/10^5 nucleotides
- Abasic sites/10^5 nucleotides ± S.E ([2]; TA100, 5 µg/ml): 4.7 ± 0.25 sites/10^5 nucleotides

Compound: O[C@@H]1C=Cc2c(ccc3ccc4ccsc4c23)[C@H]1O (racemic) [P[4,3-b]T 8,9-diol, (±)-trans-8,9-Dihydrophenanthro[4,3-b]thiophene 8,9 diol-]
- Rev/plate (Salmonella TA100; [3]): 660 rev/plate
- Rev/plate (Salmonella TA100; [4]): 938 rev/plate
- Rev/plate (Salmonella TA100; [5]): 1120 rev/plate
- Rev/plate (Salmonella TA100; [6]): 1175 rev/plate
- Rev/plate (Salmonella TA100; [7]): 1027 rev/plate
- Rev/plate (Salmonella TA100; [8]): 673 rev/plate
- Rev/plate (Salmonella TA100; [9]): 205/219
- Rev/plate (Salmonella TA100; [10]): 318/270
- Rev/plate (Salmonella TA100; [11]): 703/655
- Rev/plate (Salmonella TA100; [12]): 857/907
- Rev/plate (Salmonella TA100; [13]): 412/353
- Rev/plate (Salmonella TA100; [14]): 610/511
- Rev/plate (Salmonella TA100; [15]): 951/868
- Rev/plate (Salmonella TA100; [16]): 985/1059
- Rev/plate (Salmonella TA100; TA100 +S9, Test 4, 0.5 µg/plate, zero-dose 112/140/115): 305/312
- Rev/plate (Salmonella TA100; TA100 +S9, Test 4, 1 µg/plate, zero-dose 112/140/115): 487/469
- Rev/plate (Salmonella TA100; TA100 +S9, Test 4, 2.5 µg/plate, zero-dose 112/140/115): 976/966
- Rev/plate (Salmonella TA100; TA100 +S9, Test 4, 5 µg/plate, zero-dose 112/140/115): 1368/1275
- Rev/plate (Salmonella TA100; TA100 +S9, Test 5, 0.5 µg/plate, zero-dose 102/119/99): 269/235
- Rev/plate (Salmonella TA100; TA100 +S9, Test 5, 1 µg/plate, zero-dose 102/119/99): 430/375
- Rev/plate (Salmonella TA100; TA100 +S9, Test 5, 2.5 µg/plate, zero-dose 102/119/99): 865/878
- Rev/plate (Salmonella TA100; TA100 +S9, Test 5, 5 µg/plate, zero-dose 102/119/99): 1150/1115
- Times more mutagenic for base-substitution mutation than the parent P[4,3-b]T (Salmonella TA100; base-substitution strains (TA100, TA104), Table 2): 10–20 times
- Mutagenic potency, Revertants/µg ± S.E., TA100 (Salmonella TA100): 274 ± 37 rev/µg
- Mutagenicity call TA100 (Salmonella TA100): (+) (Called mutagenic (+) based on showing reproducible, dose-related increases in rev/plate that reached or exceeded 2-fold relative to zero-dose controls)
- Fold increase in mutant frequency relative to DMSO-treated cells (strain TA100; 5 µg/ml): 6.1 fold
- Rev/10^6 survivors (strain TA100; 5 µg/ml): 4.9 Rev/10^6 survivors
- Percent survival (strain TA100; 5 µg/ml): 47%
- Rev/plate (Salmonella TA104; TA104 +S9, Test 1, 0.5 µg/plate, zero-dose 379/400/370): 700/693
- Rev/plate (Salmonella TA104; TA104 +S9, Test 1, 1 µg/plate, zero-dose 379/400/370): 1035/1060
- Rev/plate (Salmonella TA104; TA104 +S9, Test 1, 2.5 µg/plate, zero-dose 379/400/370): 1698/1615
- Rev/plate (Salmonella TA104; TA104 +S9, Test 1, 5 µg/plate, zero-dose 379/400/370): 1986/1995
- Rev/plate (Salmonella TA104; [17]): 824/707
- Rev/plate (Salmonella TA104; [18]): 1210/1178
- Rev/plate (Salmonella TA104; [19]): 1827/1822
- Rev/plate (Salmonella TA104; [20]): 1980/1970
- Mutagenic potency, Revertants/µg ± S.E., TA104 (Salmonella TA104): 577 ± 63 rev/µg
- Mutagenicity call TA104 (Salmonella TA104): (+) (Called mutagenic (+) based on showing reproducible, dose-related increases in rev/plate that reached or exceeded 2-fold relative to zero-dose controls)
- Stable adducts/10^8 nucleotides ± S.E ([1]; TA100, 5 µg/ml): 0.650 ± 0.045 adducts/10^8 nucleotides
- Rev/plate (Salmonella TA98; [21]): 73 rev/plate
- Rev/plate (Salmonella TA98; [22]): 116 rev/plate
- Rev/plate (Salmonella TA98; [23]): 140 rev/plate
- Rev/plate (Salmonella TA98; [24]): 229 rev/plate
- Rev/plate (Salmonella TA98; [25]): 435 rev/plate
- Rev/plate (Salmonella TA98; [26]): 578 rev/plate
- Rev/plate (Salmonella TA98; [27]): 167/151
- Rev/plate (Salmonella TA98; [28]): 127/225
- Rev/plate (Salmonella TA98; [29]): 383/448
- Rev/plate (Salmonella TA98; [30]): 479/475
- Rev/plate (Salmonella TA98; [31]): 251/249
- Rev/plate (Salmonella TA98; [32]): 298/321
- Rev/plate (Salmonella TA98; [33]): 561/624
- Rev/plate (Salmonella TA98; [34]): 828/725
- Mutagenic potency, Revertants/µg ± S.E., TA98 (Salmonella TA98): 11.0 ± 1.6 rev/µg
- Mutagenicity call TA98 (Salmonella TA98): (+) (Called mutagenic (+) based on showing reproducible, dose-related increases in rev/plate that reached or exceeded 2-fold relative to zero-dose controls)
- Abasic sites/10^5 nucleotides ± S.E ([2]; TA100, 5 µg/ml): 5.5 ± 0.16 sites/10^5 nucleotides
